This note sets out measurements from patent publication US20260042764A1, “COMPOSITIONS AND METHODS FOR INHIBITION OF KRAS” (TheRas, Inc., priority 2022, published 2026).

Molecules are shown by their SMILES. pIC50: −log10 of the molar value. Some results are limits rather than exact numbers.

In assay [1] the target is T1, Avi-KRAS G12R (1-169) GppNHp/RAF1 RBD-3xFLAG (52-151) (Homo sapiens, UniProt P01116, G12R).
T1 construct: Avi-KRAS G12R (1-169)
Kind of assay: Raf1-KRAS G12R-GppNHP disruption HTRF assay (Biological Example 1). It is filed as binding. The note with it: KRAS G12R-GppNHp/RAF1 RBD HTRF. In outline:
(§1)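 First, protein mix in Tris pH 7.5 buffer with NaCl, MgCl2, BSA, Tween and 10% DMSO is incubated 1 h at room temperature. Next, reagent mix is added and incubated a further 1 h at room temperature. Finally, HTRF is read and activity normalized to DMSO.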

The test system of assay [2] is SW620 cells (KRAS G12V). The assay can be described thus: Cell-based pERK HTRF assay in SW620 cell (Biological Example 4). In outline: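 SW620 cells were treated for 4 h with compound in a 9-point half-log series from 1 μM top (0.25% DMSO), then lysed. Phospho-ERK was detected by HTRF with d2 and Eu cryptate antibodies after 4–24 h at room temperature, read at 615 nm emission.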
On the technique in general: Time-resolved FRET reads energy transfer from a long-lived donor to a nearby acceptor.

Assay [3] has as its system AsPC-1 cells (KRAS G12D). The assay can be described thus: Cell-based pERK HTRF assay in AsPC-1 cells (Biological Example 5). To be noted: Homo sapiens, ASPC1, AsPC-1 (KRAS G12D) cells. In a few lines:
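To gauge disruption of KRAS-driven signalling, pERK1/2 (Thr202/Tyr204) was quantified by time-resolved FRET in lysates of cells exposed 2 h at 37° C to a 9-point dose series. Signal ratio 665/620 nm was converted to % pERK for four-parameter EC50 fitting.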

The target of assay [4] is T2, Avi-KRAS WT (1-169) GppNHp/RAF1 RBD-3xFLAG (52-151) (Homo sapiens, UniProt P01116).
T2 construct: Avi-KRAS WT (1-169)
The assay can be described thus: Raf1-KRAS WT-GppNHP disruption HTRF assay (Biological Example 1). It is filed as binding. The note with it: KRAS WT-GppNHp/RAF1 RBD HTRF. In a few lines:
as §1

The target in assay [5] is T3, Avi-KRAS G12D (1-169) GppNHp/RAF1 RBD-3xFLAG (52-151) (Homo sapiens, UniProt P01116, G12D).
T3 construct: Avi-KRAS G12D (1-169)
The assay can be described thus: Raf1-KRAS G12D-GppNHP disruption HTRF assay (Biological Example 1). It counts as binding. To be noted: KRAS G12D-GppNHp/RAF1 RBD HTRF. In outline:
as §1

Setting [6] is: Homo sapiens, SW-620, SW620 (KRAS G12V) cells.
[7] abbreviates: SW620 (KRAS G12V) cells, pERK HTRF.
The mark [8] stands for this setting: Homo sapiens, SW-620, SW620 (KRAS G12V) cells, pERK HTRF.

By pIC50 is commonly meant the negative decadic logarithm of the IC50, by convention in mol/L.

T3 sequence (P01116 1-169 isoform P01116-2 G12D): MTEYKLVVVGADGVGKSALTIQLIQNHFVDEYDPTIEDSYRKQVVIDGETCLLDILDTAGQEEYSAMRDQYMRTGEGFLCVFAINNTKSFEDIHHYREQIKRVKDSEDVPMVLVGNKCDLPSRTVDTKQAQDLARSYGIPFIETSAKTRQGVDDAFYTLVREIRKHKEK
T2 sequence (P01116 1-169 isoform P01116-2): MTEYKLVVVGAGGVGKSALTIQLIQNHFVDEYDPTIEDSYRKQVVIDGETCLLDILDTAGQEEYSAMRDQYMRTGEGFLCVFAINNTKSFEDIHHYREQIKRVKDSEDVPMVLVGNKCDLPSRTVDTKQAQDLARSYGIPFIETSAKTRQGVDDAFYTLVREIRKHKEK
T1 sequence (P01116 1-169 isoform P01116-2 G12R): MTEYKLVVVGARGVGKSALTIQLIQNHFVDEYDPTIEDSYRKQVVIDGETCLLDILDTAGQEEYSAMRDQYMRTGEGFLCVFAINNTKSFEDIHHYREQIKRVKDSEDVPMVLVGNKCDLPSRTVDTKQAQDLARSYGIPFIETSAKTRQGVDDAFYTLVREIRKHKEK

For `CCN(c1nc(OC[C@@]23CCCN2C[C@H](F)C3)nc2c(F)c(-c3ccc(F)c4sc(N)c(C#N)c34)c(C(F)(F)F)cc12)[C@@H]1CCN(C(=O)C2CC2)[C@@H]1C` (atropisomer, axis not shown) [Compound 524], the pIC50 in assay [1] is above 7.00; in assay [2] (setting [6]), above 7.00; in assay [2] (setting [7]), above 7.00; in assay [3] it was 6.00 to 7.00; in assay [4], above 7.00; in assay [5], above 7.00.

As to `CCN(c1nc(OC[C@@]23CCCN2C[C@H](F)C3)nc2c(F)c(-c3ccc(F)c4sc(N)c(C#N)c34)c(C(F)(F)F)cc12)[C@H]1CCN(C(=O)OC)C1` (atropisomer, axis not shown) [Compound 541, methyl(3S)-3-[[7-(2-amino-3-cyano-7-fluoro-benzothiophen-4-yl)-8-fluoro-2-[[(2R,8S)-2-fluoro-1,2,3,5,6,7-hexahydropyrrolizin-8-yl]methoxy]-6-(trifluoromethyl)quinazolin-4-yl]-ethyl-amino]pyrrolidine-1-carboxylate], the pIC50 was above 7.00 in assay [1]; above 7.00 in assay [2] (SW620 (KRAS G12V) cells); above 7.00 in assay [2] (setting [7]); at least 7.00 in assay [3]; above 7.00 in assay [4]; above 7.00 in assay [5].

Turning to `CCN(c1nc(OC[C@@]23CCCN2C[C@H](F)C3)nc2c(F)c(-c3ccc(F)c4sc(N)c(C#N)c34)c(C(F)(F)F)cc12)[C@H]1C[C@H]2COC(=O)N2C1` (atropisomer, axis not shown; (aS)) [Compound 518, 2-amino-4-((S)-4-(ethyl((6S,7aS)-3-oxotetrahydro-1H,3H-pyrrolo[1,2-c]oxazol-6-yl)amino)-8-fluoro-2-(((2R,7aS)-2-fluorotetrahydro-1H-pyrrolizin-7a(5H)-yl)methoxy)-6-(trifluoromethyl)quinazolin-7-yl)-7-fluorobenzo[b]thiophene-3-carbonitrile], the pIC50 is above 7.00 in assay [1]; above 7.00 in assay [2] (setting [6]); above 7.00 in assay [2] (setting [8]); at least 7.00 in assay [3]; above 7.00 in assay [4]; above 7.00 in assay [5].

With `CCN(c1nc(OC[C@@]23CCCN2C[C@H](F)C3)nc2c(F)c(-c3ccc(F)c4sc(N)c(C#N)c34)c(C(F)(F)F)cc12)[C@H]1C[C@H]2CN(C)C(=O)N2C1` (atropisomer, axis not shown; (aS)) [Compound 543, 2-amino-4-((S)-4-(ethyl((6S,7aS)-2-methyl-3-oxohexahydro-1H-pyrrolo[1,2-c]imidazol-6-yl)amino)-8-fluoro-2-(((2R,7aS)-2-fluorotetrahydro-1H-pyrrolizin-7a(5H)-yl)methoxy)-6-(trifluoromethyl)quinazolin-7-yl)-7-fluorobenzo[b]thiophene-3-carbonitrile], the pIC50 is above 7.00 in assay [1]; above 7.00 in assay [2] (setting [6]); above 7.00 in assay [2] (setting [8]); at least 7.00 in assay [3]; above 7.00 in assay [4]; above 7.00 in assay [5].

For the molecule `CCN(c1nc(OC[C@@]23CCCN2C[C@H](F)C3)nc2c(F)c(-c3ccc(F)c4sc(N)c(C#N)c34)c(C(F)(F)F)cc12)[C@H]1CCN(C(=O)C(C)C)C1` (single isomer, unassigned) [Compound 469], the pIC50 was above 7.00 in assay [1]; above 7.00 in assay [2] (setting [6]); above 7.00 in assay [2] (setting [8]); at least 7.00 in assay [3]; above 7.00 in assay [4]; above 7.00 in assay [5].

On to `CCOC(=O)N1CC[C@H](N(CC)c2nc(OC[C@@]34CCCN3C[C@H](F)C4)nc3c(F)c(-c4ccc(F)c5sc(N)c(C#N)c45)c(C(F)(F)F)cc23)C1` [Compound 467], for which the negative logarithm of the IC50 (pIC50) in assay [1] is above 7.00; in assay [2] (setting [8]) it was above 7.00; in assay [3] it was 6.00 to 7.00; in assay [4], 6.00 to 7.00; in assay [5], above 7.00.

As to `CCN(c1nc(OC[C@@]23CCCN2C[C@H](F)C3)nc2c(F)c(-c3ccc(F)c4sc(N)c(C#N)c34)c(C(F)(F)F)cc12)[C@H]1C[C@H](C)N(C(=O)C2CC2)C1` [Compound 470], the pIC50 in assay [1] was above 7.00; in assay [2] (setting [8]), above 7.00; in assay [3] it was at least 7.00; in assay [4], above 7.00; in assay [5] it was above 7.00.

`Cc1cc2n(n1)CCN(c1nc(OCC34CCCN3CC(F)C4)nc3c(F)c(-c4ccc(F)c5sc(N)c(C#N)c45)c(C(F)(F)F)cc13)C2` (centres unmarked) [Compound 484]: the pIC50 in assay [1] is 5.00 to 6.00; in assay [2] (setting [8]), above 7.00; in assay [3], at least 7.00; in assay [4], 5.00 to 6.00; in assay [5], 5.00 to 6.00.

`N#Cc1c(N)sc2c(F)ccc(-c3c(C(F)(F)F)cc4c(N5CCn6nc(N7CCOCC7)cc6C5)nc(OC[C@@]56CCCN5C[C@H](F)C6)nc4c3F)c12` [Compound 485]: the pIC50 in assay [1] is 5.00 to 6.00; in assay [2] (setting [8]), above 7.00; in assay [3] it was 6.00 to 7.00; in assay [4], 5.00 to 6.00; in assay [5] it was 5.00 to 6.00.

Take `Cc1c(C(=O)N(C)C)nn2c1CN(c1nc(OC[C@@]34CCCN3C[C@H](F)C4)nc3c(F)c(-c4ccc(F)c5sc(N)c(C#N)c45)c(C(F)(F)F)cc13)CC2` [Compound 501]: the pIC50 in assay [1] was above 7.00; in assay [2] (setting [6]), above 7.00; in assay [2] (setting [8]), above 7.00; in assay [3], at least 7.00; in assay [4], 6.00 to 7.00; in assay [5], above 7.00.
